Measured values reported in US6299906A, “Process for making submicron particles” (Hoffmann-La Roche Inc., priority 1998, dated 2001).
In brackets after ≈: the same amount, converted by molar mass. Like-named read-outs stand apart in the source and are kept apart here.

Experiments:
[1] = Solubility of drug substances in liquid carbon dioxide and dimethyl ether (HPLC or gravimetric); assay type: physicochemical
Description: A comparison of solubilities of a number of pharmaceutical drug substances was performed as follows:
Approximately 3-5 g of the drug product was slightly compressed in a uniaxial press to avoid the formation of a stable suspension. The so compressed powder was placed in a pressure chamber with a sapphire glass (30 ml volume). The temperature of the pressure chamber was controlled by water bath. Then the pressure in the chamber was increased using the corresponding gas and equilibrated for 1-3 hours. After equilibration a 1.0 ml sample was drawn under constant pressure and temperature conditions using a high pressure line with a defined volume. […] The sample container was afterwards rinsed with the same liquid to collect the residues of the substance in the sample container.

[2] = Particle size distribution of THL by laser diffraction, influence of the spraying time (Example 2); assay type: physicochemical; settings: for Dv 0.1 / Dv 0.5 / Dv 0.9: CO2 200 bar, 40° C., Brij 96
From the text: (§1) The particle size distribution of very small particles of approximately 1 μm is difficult to determine accurately. Two commonly used methods are photon correlation spectroscopy (PCS) and laser diffraction. Photon correlation spectroscopy is commonly used for characterization of submicron suspensions and emulsions. Due to the principle of the measurement, movement of particles, particles larger than 3 to 5 μm cannot be seen with this method. With laser diffraction small particles, >0.1 μm, as well as larger particles, up to 2 mm, can be characterized in parallel. The diffraction of the light is thereby measured at small diffraction angles. For very small particles the method tends to overestimate the particle size due to transmission of light through the particles.
(§2) Formation of fractions of coarse particles was observed especially after clogging of the nozzle, e.g. expansion of a compound dissolved in a compressed gas without modifier. To be able to detect the presence of coarse particles, laser diffraction was chosen to characterize the whole suspension. With its wide dynamic range, laser diffraction allows the detection of particles up to 2 mm that cannot be seen by the PCS method. Since laser diffraction tends to overestimate the particle size (FIGS. 2, 3), all the particle sizes determined by laser diffraction can be considered as too large.
150 g of solid THL and 75 g Brij 96 in a container with two sinter plates was charged into an autoclave having a volume of 6 liter. The autoclave was kept at a temperature of 40° C. with a water bath. Then the autoclave was filled with CO2 up to a pressure of 200 bar and equilibrated for 90 min.
The autoclave was connected to a second autoclave via a heated high pressure line, kept at 40° C. […] The dissolved THL was sprayed into 1.25 liter of an aqueous solution of Brij 96 (0.06%=1 CMC) in this second autoclave. The pressure of the first autoclave was kept constant at 200 bar by pumping in additional gas.
After 90, 150, and 180 minutes of spraying, a sample for particle size distribution was drawn. After 180 min the whole amount of THL/Brij was removed from the first container (≈12% THL in the final suspension).

[3] = From the text: as §1
To be able to detect the presence of coarse particles, laser diffraction was chosen to characterize the whole suspension. With its wide dynamic range, laser diffraction allows the detection of particles up to 2 mm that cannot be seen by the PCS method.
The autoclave was kept at a temperature of 40° C. with a water bath. Then the autoclave was filled with DME up to 200 bar and equilibrated for 90 min.
The autoclave was connected to a second autoclave via a heated high pressure line, kept at 25° C., at 5 bar. […] The pressure of the first autoclave was kept constant by pumping in additional gas.

[4] = Particle size distribution of Saquinavir by laser diffraction, influence of the pressure in the first container (Example 3); assay type: physicochemical; settings: DME, Aerosol OT, 40° C.
From the text: as §1, §2
The autoclave was kept at a temperature of 40° C. with a water bath. Then the autoclave was filled with DME up to different pressures and equilibrated for 90 min.
The autoclave was connected to a second autoclave via a heated high pressure line, kept at 25° C., 5 bar. […] The pressure of the first autoclave was kept constant by pumping in additional gas.
The nozzle diameter was 0.1 mm. As commonly known a further decrease of particle size can be obtained by decrease of the nozzle diameter.

[5] = Particle size distribution of Saquinavir by Photon Correlation Spectroscopy (FIG. 2); assay type: physicochemical; settings: batch no. 1051/30, Angle 90
From the text: as §1

[6] = liquid co2, organic solvent or mixture, CO2, 45° C./200 bar, read-out: solubility (CO2)
[7] = organic solvent or mixture, dimethyl ether, 45° C./200 bar, read-out: solubility (DME)
[8] = surfactant Brij 96, DME 200 bar, 40° C.
[9] = pressure l00 bar (so in the source)

COc1ccccc1Oc1c(NS(=O)(=O)c2ccc(C(C)(C)C)cc2)nc(-c2ncccn2)nc1OCCO [Bosentan]
solubility [1, 6]: < 1 mg/mL | solubility [1, 7]: 90 mg/mL (≈ 163 mM)

CC1=C(/C=C/C(C)=C/C=C/C(C)=C\C(=O)O)C(C)(C)CCC1 [Isotretionin]
solubility [1, 6]: 3 mg/mL (≈ 9.99 mM) | solubility [1, 7]: 60 mg/mL (≈ 200 mM)

O=C(NCCN1CCOCC1)c1ccc(Cl)cc1 [Moclobemide]
solubility [1, 6]: 3.5 mg/mL (≈ 13 mM) | solubility [1, 7]: 37 mg/mL (≈ 138 mM)

CCCCCCCCCCC[C@@H](C[C@@H]1OC(=O)[C@H]1CCCCCC)OC(=O)[C@H](CC(C)C)NC=O [Orlistat, Tetrahydrolipstatin]
solubility ([1]; organic solvent or mixture, dimethyl ether, 20° C./4.5 bar, read-out: solubility (DME)): 178 mg/mL (≈ 359 mM) | solubility ([1]; organic solvent or mixture, liquid CO2, 30° C./100 bar, read-out: solubility (CO2)): 6 mg/mL (≈ 12.1 mM) | resulting particle size distribution ([2]; over the whole trial (up to 180 min spraying)): kept almost constant over the whole trial | Dv 0.1 ([2]; spraying time 90 min): 0.6 μm | Dv 0.5 ([2]; spraying time 90 min): 1.4 μm | Dv 0.9 ([2]; spraying time 90 min): 2.9 μm | Dv 0.1 ([2]; spraying time 150 min): 0.4 μm | Dv 0.5 ([2]; spraying time 150 min): 1.5 μm | Dv 0.9 ([2]; spraying time 150 min): 3.5 μm | Dv 0.1 ([2]; spraying time 180 min): 0.9 μm | Dv 0.5 ([2]; spraying time 180 min): 2.1 μm | Dv 0.9 ([2]; spraying time 180 min): 4.5 μm

CC(C)(C)NC(=O)[C@@H]1C[C@@H]2CCCC[C@@H]2CN1C[C@@H](O)[C@H](Cc1ccccc1)NC(=O)[C@H](CC(N)=O)NC(=O)c1ccc2ccccc2n1 [Saquinavir]
solubility [1, 6]: < 1 mg/mL | solubility ([1]; organic solvent or mixture, dimethyl ether, 25° C./100 bar, read-out: solubility (DME)): > 100 mg/mL | Dv 0.1 ([3]; surfactant Aerosol OT, DME): 0.9 μm | Dv 0.5 ([3]; surfactant Aerosol OT, DME): 1.5 μm | Dv 0.9 ([3]; surfactant Aerosol OT, DME): 2.4 μm | Dv 0.1 [3, 8]: 0.7 μm | Dv 0.5 [3, 8]: 1.4 μm | Dv 0.9 [3, 8]: 3.0 μm | Dv 0.1 ([4]; pressure 50 bar): 0.5 μm | Dv 0.5 ([4]; pressure 50 bar): 3.8 μm | Dv 0.9 ([4]; pressure 50 bar): 6.4 μm | Dv 0.1 ([4]; pressure 200 bar): 0.9 μm | Dv 0.5 ([4]; pressure 200 bar): 1.5 μm | Dv 0.9 ([4]; pressure 200 bar): 2.4 μm | Dv 0.1 ([4]; pressure 280 bar): 0.4 μm | Dv 0.5 ([4]; pressure 280 bar): 0.8 μm | Dv 0.9 ([4]; pressure 280 bar): 1.7 μm | Dv 0.1 [4, 9]: 1.0 μm | Dv 0.5 [4, 9]: 2.1 μm | Dv 0.9 [4, 9]: 4.5 μm | Poly [5]: 0.031 | ZAve [5]: 254.7
